US12139472B2, “Inhibitors of advanced glycation end products” (priority 2019, dated 2024)
Values joined by “and” are separate entries in the source; they are usually repeats but may differ in a detail not shown here. Identical values can stand only once.

Columns and labels:
[1] = Pharmacokinetic study for PTG-630 (IV and PO): plasma, whole blood, tissues, urine; type: in vivo, Sprague Dawley rats; conditions: for PTG-4997 (metabolite) concentration: Table 2, for PTG-4997 (metabolite) after PTG-630 PO 100 mg/kg
Experimental: The samples were analyzed in two batches with standards and QCs prepared on rat plasma and rat urine. Analyst® 1.6 (SCIEX) software was used for statistical analysis of bioanalytical data. […] Dose samples collected at 0.083 h-6 h postdose were diluted 4 times with SD rat plasma prior to plating. Twenty-four (24) hours plasma samples were assayed without dilution. […] Two sciatic nerve samples were excluded from analysis, due to the insufficient sample size. […] The 12 non-cannulated animals were arbitrarily assigned to groups upon arrival and housed together throughout the experiment. The animals were acclimated to their designated housing for at least 24 hours before the first day of dosing. […] Blood samples were collected via cannula from IV dosed rats or by cardiac stick from PO dosed rats at the specified time points for sampling pharmacokinetics. Blood was collected into K2EDTA tubes. Tubes were mixed gently after blood collection, chilled and centrifuged at 3000 rpm, 4° C. within 30 minutes upon collection. The samples were centrifuged at 4° C. and the resultant plasma separated. […] Urine from Group 1 was collected via polycarbonate tubes from rats placed in drug metabolism cages. Urine was maintained and room temperature through the collection period.

[2] = test system: CYP3A; type: in vitro ADME, human; conditions: HLM
Excerpt: Compound 5 (PTG-630 free base) and 7 additional compounds for CYP3A P450 inhibition.
Imidazole (and benzimidazole) containing drugs are ubiquitous in pharmacological practice; however, drug-drug interactions (DDI) have been observed with some imidazole-containing classes, such as the antifungal azoles typified by ketoconazole. It is believed that the imidazole moiety accounts for their ability to inhibit CYP3A, the major DDI enzyme that metabolizes up to 50% of common drugs. The compounds of the disclosure incorporate an imidazole moiety attached to a pyridine ring via the imidazole C-2. They all share an imidazo-hydroxypyridine theme that can bind redox metal ions, while differing in the nature of the X side-chain. The potential of the compounds of the disclosure for DDI was evaluated by screening their inhibition of CYP3A.
Two studies were conducted in human liver microsomes (HLM). Lead candidate PTG-630 was tested using the Eurofins G232 panel (Drug Metab Dispos. 2001 January; 29(1):23-9), where inhibition was measured against seven CYP enzymes; CYP3A4 was tested using two different substrates, midazolam and testosterone. In a second study, inhibition of CYP3A4 (midazolam substrate only) was compared for 8 compounds of interest. The test protocol involved one-point measurements in duplicate, where inhibition was measured at a fixed 10 μM concentration of candidate inhibitors. In all cases, the substrate for each CYP enzyme was at a concentration equal to its specific Km value that was independently obtained from an 8-point dose-response study. Based on the observed value for percent inhibition for each test compound, we calculated of an IC50 assuming a competitive mode of inhibition. If percent inhibition for an inhibitor at a concentration of [I] is denoted by P, then: IC50=[I]*(100−P)/P In the single-point assay, [I] is 10 μM. If measured inhibition is 10%, then IC50=10*(100-10)/10=90 μM. […] As discussed in Lin et al. (J Pharm Sci. 2007 September; 96(9):2485-93; doi: 10.1002/jps.20884), CYP inhibition is broadly interpreted as being “potent” if IC50<1 μM, “moderate” if 1 μM<IC50<10 μM, and “weak” if IC50>10 μM.

Cc1ncc(CO)c(-c2ncc[nH]2)c1O [PTG-4997]
PTG-4997 (metabolite) concentration ([1]; muscle, 2 h postdose, Mean): <BLQ
PTG-4997 (metabolite) concentration ([1]; muscle, 2 h postdose, individual animals): <BLQ
PTG-4997 (metabolite) concentration ([1]; muscle, 4 h postdose, Mean): 54 ng/mL
PTG-4997 (metabolite) concentration ([1]; muscle, 4 h postdose, individual animals, 100 mg/kg): 108 ng/mL and <BLQ
PTG-4997 (metabolite) concentration ([1]; muscle, 6 h postdose, Mean): 127.5 ng/mL
PTG-4997 (metabolite) concentration ([1]; muscle, 6 h postdose, individual animals, 100 mg/kg): 108 ng/mL and 147 ng/mL
PTG-4997 (metabolite) concentration ([1]; muscle, 24 h postdose, Mean): <BLQ
PTG-4997 (metabolite) concentration ([1]; muscle, 24 h postdose, individual animals): <BLQ
PTG-4997 (metabolite) concentration ([1]; plasma, 0.5 h postdose, Mean): <BLQ
PTG-4997 (metabolite) concentration ([1]; plasma, 0.5 h postdose, individual animals): <BLQ
PTG-4997 (metabolite) concentration ([1]; plasma, 1 h postdose, Mean): <BLQ
PTG-4997 (metabolite) concentration ([1]; plasma, 1 h postdose, individual animals): <BLQ
PTG-4997 (metabolite) concentration ([1]; plasma, 2 h postdose, Mean): <BLQ
PTG-4997 (metabolite) concentration ([1]; plasma, 2 h postdose, individual animals): <BLQ
PTG-4997 (metabolite) concentration ([1]; plasma, 4 h postdose, Mean): <BLQ
PTG-4997 (metabolite) concentration ([1]; plasma, 4 h postdose, individual animals): <BLQ
PTG-4997 (metabolite) concentration ([1]; plasma, 6 h postdose, Mean): <BLQ
PTG-4997 (metabolite) concentration ([1]; plasma, 6 h postdose, individual animals): <BLQ
PTG-4997 (metabolite) concentration ([1]; plasma, 24 h postdose, Mean): <BLQ
PTG-4997 (metabolite) concentration ([1]; plasma, 24 h postdose, individual animals): <BLQ
PTG-4997 (metabolite) concentration ([1]; sciatic nerve, 0.5 h postdose, Mean): <BLQ
PTG-4997 (metabolite) concentration ([1]; sciatic nerve, 0.5 h postdose, individual animals): <BLQ
PTG-4997 (metabolite) concentration ([1]; sciatic nerve, 1 h postdose, Mean): <BLQ
PTG-4997 (metabolite) concentration ([1]; sciatic nerve, 1 h postdose, individual animals): <BLQ
PTG-4997 (metabolite) concentration ([1]; sciatic nerve, 2 h postdose, Mean): <BLQ
PTG-4997 (metabolite) concentration ([1]; sciatic nerve, 2 h postdose, individual animals): <BLQ
PTG-4997 (metabolite) concentration ([1]; sciatic nerve, 4 h postdose, Mean): <BLQ
PTG-4997 (metabolite) concentration ([1]; sciatic nerve, 4 h postdose, individual animals): <BLQ
PTG-4997 (metabolite) concentration ([1]; sciatic nerve, 6 h postdose, Mean): <BLQ
PTG-4997 (metabolite) concentration ([1]; sciatic nerve, 6 h postdose, individual animals): <BLQ
PTG-4997 (metabolite) concentration ([1]; sciatic nerve, 24 h postdose, Mean): <BLQ
PTG-4997 (metabolite) concentration ([1]; sciatic nerve, 24 h postdose, individual animals): <BLQ
AUC last in kidney, times lower than PTG-630 in kidneys ([1]; after PTG-630 PO): 3 times
detection in plasma following IV dosing ([1]; metabolite PTG-4997 after PTG-630 IV): only detected in the plasma of single animal
presence in kidney ([1]; metabolite PTG-4997 after PTG-630 PO): present in steady level for 24 hours
presence in muscle samples ([1]; metabolite PTG-4997 after PTG-630 PO, 4-6 hours postdose): intermittently present
detection in plasma following PO administration ([1]; metabolite PTG-4997 after PTG-630 PO, any timepoint): not detectable
presence in liver samples ([1]; metabolite PTG-4997 after PTG-630 PO, any timepoint through 24 hours postdose): undetectable
average amount recovered from each animal ([1]; urine, 24 hours, after PTG-630 IV): 146 ng
excretion rate, times lower than PTG-630 ([1]; urine, after PTG-630 IV): 34 times
Estimated IC50 ([2]; midazolam, from one-point % inhibition at 10 μM, IC50=[I]*(100−P)/P): — None
P % inhib ([2]; substrate midazolam at Km, Inhib Conc. 1.0E−05 M): −4.9%
